IC50 data for one compound are collected here from patent US10696682B2, “CDK inhibitors” (G1 Therapeutics, Inc., priority 2010, dated 2020).

The target in the assay is CDK4/cyclinD (Homo sapiens (Human), UniProt P11802). The assay can be described thus: CDK4/CyclinD kinase enzymatic assay (Caliper LabChip). The class given is biochemical. Conditions: tested as HCl salts, 12-point dose response, at the Km for ATP, three hours. Here is the method: Kinase enzymatic reactions were performed in 384-well microplates using a 12-channel Caliper LabChip instrument as a detection device. […] As substrate and product are separated, two peaks of fluorescence are observed. Change in the relative fluorescence intensity of the substrate and product peaks is the parameter measured, reflecting enzyme activity. In the presence of an inhibitor, the ratio between product and substrate is altered. The signal of the product decreases, while the signal of the substrate increases.
Potential inhibitor compounds (as HCl salts) were tested using 12-point dose response curves in […] at the Km for ATP. The IC50 of each compound was determined using GraphPad Prism.

Each structure is given as a SMILES string.

Sequence of CDK4/cyclinD (P11802 whole entry, species assumed): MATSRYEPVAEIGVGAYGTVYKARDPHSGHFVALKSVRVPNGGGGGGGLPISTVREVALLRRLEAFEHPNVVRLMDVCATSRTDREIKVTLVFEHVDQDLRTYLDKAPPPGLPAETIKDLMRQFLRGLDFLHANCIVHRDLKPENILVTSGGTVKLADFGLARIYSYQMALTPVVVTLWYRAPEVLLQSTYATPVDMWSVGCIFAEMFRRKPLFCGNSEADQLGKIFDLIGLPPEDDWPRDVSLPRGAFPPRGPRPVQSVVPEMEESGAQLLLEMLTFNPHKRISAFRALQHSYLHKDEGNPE
Sequence of CDK4/cyclinD (P24385 whole entry partner, species assumed): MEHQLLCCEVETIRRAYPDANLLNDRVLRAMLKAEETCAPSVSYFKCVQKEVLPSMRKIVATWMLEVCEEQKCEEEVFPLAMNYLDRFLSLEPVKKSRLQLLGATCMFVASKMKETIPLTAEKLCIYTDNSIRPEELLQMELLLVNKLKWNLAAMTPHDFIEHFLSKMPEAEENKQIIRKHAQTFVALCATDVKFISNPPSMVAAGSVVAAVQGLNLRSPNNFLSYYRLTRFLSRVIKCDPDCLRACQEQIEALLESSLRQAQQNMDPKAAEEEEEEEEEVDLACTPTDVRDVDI

Regarding `O=C1NCCn2c1cc1cnc(Nc3ccc(N4CCNCC4)cn3)nc12` [Compound 3], the IC50 (commonly the midpoint of a concentration-inhibition curve) was 1.05 µM.
